In the supplement of paper PMC11208160:

Test: recombinant barcode read abundance after kanamycin selection (control-corrected) (log10(CPM+1)); higher = more efficient recombination; sequences stand for … in AGTGCAGAGAAAATCGGCCAGTTTTCTCTGCCTGCAGTCCGCATGCCGT…ATTTATGCAGCGGACTGCCTTTCTCCCAAAGTGATAAACCGGACAGTATCATGGACCGGTTTTCCCGGTAATCCGTATTTGCAAGGTTGGTTTCACT; site = the 11-nt target
Protocol: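 Same pooled E. coli target screen (IS621 bridge recombinase, kanamycin selection, control-corrected CPM, mean of 2 biological replicates). Here the two core-binding nucleotides of the LTG and RTG of the bridge RNA target-binding loop are mutated. Target and donor CT cores are held constant, and the other 9 guide positions match the target. The target is read from the library oligo sequence. Molecule = full bridge RNA written as DNA: nt 1-80 from the library oligo, rest WT scaffold.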

Sequence	recombinant barcode read abundance (log10)
AAACATGGATGGGTTCTAACCTGTTGCCTTC [AAACATGCTAG_LTGcore_GA_RTGcore_GA] (site AAACATGCTAG) (LTG core: GA, RTG core: GA)	0.0557
AAACATGGTTGGGTTCTAACCTGTTGCCTAG [AAACATGCTAG_LTGcore_GT_RTGcore_CT] (site AAACATGCTAG) (LTG core: GT, RTG core: CT)	0.108
AAACATGTTTGGGTTCTAACCTGTTGCCTAG [AAACATGCTAG_LTGcore_TT_RTGcore_CT] (site AAACATGCTAG) (LTG core: TT, RTG core: CT)	0.0409
ACGGGACAATGGGTTCTAACCTGTTGCAGAG [ACGGGACCTCT_LTGcore_AA_RTGcore_CT] (site ACGGGACCTCT) (LTG core: AA, RTG core: CT)	0.0324
ACGGGACAATGGGTTCTAACCTGTTGCAGTT [ACGGGACCTCT_LTGcore_AA_RTGcore_AA] (site ACGGGACCTCT) (LTG core: AA, RTG core: AA)	0.298
ACGGGACAGTGGGTTCTAACCTGTTGCAGCT [ACGGGACCTCT_LTGcore_AG_RTGcore_AG] (site ACGGGACCTCT) (LTG core: AG, RTG core: AG)	0.237
ACGGGACCCTGGGTTCTAACCTGTTGCAGGG [ACGGGACCTCT_LTGcore_CC_RTGcore_CC] (site ACGGGACCTCT) (LTG core: CC, RTG core: CC)	1.21
ACGGGACCTTGGGTTCTAACCTGTTGCAGAC [ACGGGACCTCT_LTGcore_CT_RTGcore_GT] (site ACGGGACCTCT) (LTG core: CT, RTG core: GT)	0.9
ACGGGACCTTGGGTTCTAACCTGTTGCAGAT [ACGGGACCTCT_LTGcore_CT_RTGcore_AT] (site ACGGGACCTCT) (LTG core: CT, RTG core: AT)	1.4
ACGGGACCTTGGGTTCTAACCTGTTGCAGGA [ACGGGACCTCT_LTGcore_CT_RTGcore_TC] (site ACGGGACCTCT) (LTG core: CT, RTG core: TC)	0.528
ACGGGACGATGGGTTCTAACCTGTTGCAGAG [ACGGGACCTCT_LTGcore_GA_RTGcore_CT] (site ACGGGACCTCT) (LTG core: GA, RTG core: CT)	0.81
ACGGGACGCTGGGTTCTAACCTGTTGCAGAG [ACGGGACCTCT_LTGcore_GC_RTGcore_CT] (site ACGGGACCTCT) (LTG core: GC, RTG core: CT)	0.257
ACGGGACGGTGGGTTCTAACCTGTTGCAGAG [ACGGGACCTCT_LTGcore_GG_RTGcore_CT] (site ACGGGACCTCT) (LTG core: GG, RTG core: CT)	0.14
ACGGGACTGTGGGTTCTAACCTGTTGCAGAG [ACGGGACCTCT_LTGcore_TG_RTGcore_CT] (site ACGGGACCTCT) (LTG core: TG, RTG core: CT)	0.397
ACGGGACTGTGGGTTCTAACCTGTTGCAGCA [ACGGGACCTCT_LTGcore_TG_RTGcore_TG] (site ACGGGACCTCT) (LTG core: TG, RTG core: TG)	0.179
ACGGGACTTTGGGTTCTAACCTGTTGCAGAA [ACGGGACCTCT_LTGcore_TT_RTGcore_TT] (site ACGGGACCTCT) (LTG core: TT, RTG core: TT)	0.0398
ACGGGACTTTGGGTTCTAACCTGTTGCAGAG [ACGGGACCTCT_LTGcore_TT_RTGcore_CT] (site ACGGGACCTCT) (LTG core: TT, RTG core: CT)	0.0241
AGGAGGTAATGGGTTCTAACCTGTTGCCTAG [AGGAGGTCTAG_LTGcore_AA_RTGcore_CT] (site AGGAGGTCTAG) (LTG core: AA, RTG core: CT)	0.278
AGGAGGTAGTGGGTTCTAACCTGTTGCCTAG [AGGAGGTCTAG_LTGcore_AG_RTGcore_CT] (site AGGAGGTCTAG) (LTG core: AG, RTG core: CT)	0.122
AGGAGGTCTTGGGTTCTAACCTGTTGCCTGC [AGGAGGTCTAG_LTGcore_CT_RTGcore_GC] (site AGGAGGTCTAG) (LTG core: CT, RTG core: GC)	0.814
AGGAGGTCTTGGGTTCTAACCTGTTGCCTGG [AGGAGGTCTAG_LTGcore_CT_RTGcore_CC] (site AGGAGGTCTAG) (LTG core: CT, RTG core: CC)	0.551
AGGAGGTGATGGGTTCTAACCTGTTGCCTAG [AGGAGGTCTAG_LTGcore_GA_RTGcore_CT] (site AGGAGGTCTAG) (LTG core: GA, RTG core: CT)	0.417

Sequence	recombinant barcode read abundance (log10)
AGGAGGTTATGGGTTCTAACCTGTTGCCTAG [AGGAGGTCTAG_LTGcore_TA_RTGcore_CT] (site AGGAGGTCTAG) (LTG core: TA, RTG core: CT)	0.0987
AGGAGGTTTTGGGTTCTAACCTGTTGCCTAG [AGGAGGTCTAG_LTGcore_TT_RTGcore_CT] (site AGGAGGTCTAG) (LTG core: TT, RTG core: CT)	0.0313
AGGCCTCCATGGGTTCTAACCTGTTGCCTAG [AGGCCTCCTAG_LTGcore_CA_RTGcore_CT] (site AGGCCTCCTAG) (LTG core: CA, RTG core: CT)	0.44
AGGCCTCCTTGGGTTCTAACCTGTTGCCTAG [AGGCCTCCTAG_LTGcore_CT_RTGcore_CT] (site AGGCCTCCTAG) (LTG core: CT, RTG core: CT)	1.32
AGGCCTCCTTGGGTTCTAACCTGTTGCCTCG [AGGCCTCCTAG_LTGcore_CT_RTGcore_CG] (site AGGCCTCCTAG) (LTG core: CT, RTG core: CG)	0.401
AGGCCTCCTTGGGTTCTAACCTGTTGCCTTT [AGGCCTCCTAG_LTGcore_CT_RTGcore_AA] (site AGGCCTCCTAG) (LTG core: CT, RTG core: AA)	0.116
AGGCCTCGATGGGTTCTAACCTGTTGCCTAG [AGGCCTCCTAG_LTGcore_GA_RTGcore_CT] (site AGGCCTCCTAG) (LTG core: GA, RTG core: CT)	0.24
AGGCCTCGTTGGGTTCTAACCTGTTGCCTAG [AGGCCTCCTAG_LTGcore_GT_RTGcore_CT] (site AGGCCTCCTAG) (LTG core: GT, RTG core: CT)	0.148
AGGCCTCTGTGGGTTCTAACCTGTTGCCTAG [AGGCCTCCTAG_LTGcore_TG_RTGcore_CT] (site AGGCCTCCTAG) (LTG core: TG, RTG core: CT)	0.11
AGGCGGGAGTGGGTTCTAACCTGTTGCGGCT [AGGCGGGCTCC_LTGcore_AG_RTGcore_AG] (site AGGCGGGCTCC) (LTG core: AG, RTG core: AG)	0.0482
AGGCGGGATTGGGTTCTAACCTGTTGCGGAG [AGGCGGGCTCC_LTGcore_AT_RTGcore_CT] (site AGGCGGGCTCC) (LTG core: AT, RTG core: CT)	0.447
AGGCGGGATTGGGTTCTAACCTGTTGCGGAT [AGGCGGGCTCC_LTGcore_AT_RTGcore_AT] (site AGGCGGGCTCC) (LTG core: AT, RTG core: AT)	0.178
AGGCGGGCTTGGGTTCTAACCTGTTGCGGCA [AGGCGGGCTCC_LTGcore_CT_RTGcore_TG] (site AGGCGGGCTCC) (LTG core: CT, RTG core: TG)	0.0958
AGGCGGGCTTGGGTTCTAACCTGTTGCGGCT [AGGCGGGCTCC_LTGcore_CT_RTGcore_AG] (site AGGCGGGCTCC) (LTG core: CT, RTG core: AG)	0.172
AGGCGGGCTTGGGTTCTAACCTGTTGCGGTA [AGGCGGGCTCC_LTGcore_CT_RTGcore_TA] (site AGGCGGGCTCC) (LTG core: CT, RTG core: TA)	0.138
AGGCGGGCTTGGGTTCTAACCTGTTGCGGTG [AGGCGGGCTCC_LTGcore_CT_RTGcore_CA] (site AGGCGGGCTCC) (LTG core: CT, RTG core: CA)	0.201
AGGCGGGGATGGGTTCTAACCTGTTGCGGAG [AGGCGGGCTCC_LTGcore_GA_RTGcore_CT] (site AGGCGGGCTCC) (LTG core: GA, RTG core: CT)	0.555
AGGCGGGTCTGGGTTCTAACCTGTTGCGGAG [AGGCGGGCTCC_LTGcore_TC_RTGcore_CT] (site AGGCGGGCTCC) (LTG core: TC, RTG core: CT)	0.95
AGGCGGGTGTGGGTTCTAACCTGTTGCGGCA [AGGCGGGCTCC_LTGcore_TG_RTGcore_TG] (site AGGCGGGCTCC) (LTG core: TG, RTG core: TG)	0.0694
AGGCGGTACTGGGTTCTAACCTGTTGCTTGT [AGGCGGTCTAA_LTGcore_AC_RTGcore_AC] (site AGGCGGTCTAA) (LTG core: AC, RTG core: AC)	0.166
AGGCGGTCATGGGTTCTAACCTGTTGCTTAG [AGGCGGTCTAA_LTGcore_CA_RTGcore_CT] (site AGGCGGTCTAA) (LTG core: CA, RTG core: CT)	0.322
AGGCGGTCGTGGGTTCTAACCTGTTGCTTCG [AGGCGGTCTAA_LTGcore_CG_RTGcore_CG] (site AGGCGGTCTAA) (LTG core: CG, RTG core: CG)	0.228
